Earlier results on one compound are cited in patent US11992559B2, “Microsphere formulations comprising lurasidone and methods for making and using the same” (Oakwood Laboratories, LLC, priority 2021, dated 2024).

Structures can show the parent of a compound that is named as a salt.

For series [1] the following is noted: at 25° C.

As to `O=C1[C@@H]2[C@H]3CC[C@H](C3)[C@@H]2C(=O)N1C[C@@H]1CCCC[C@H]1CN1CCN(c2nsc3ccccc23)CC1` [lurasidone HCl, Lurasidone], the “solubility in benzyl alcohol” value (benzyl alcohol) is recorded as 69.19 mg/g. The solubility in dichloromethane (dichloromethane) is 24.43 mg/g. Moreover, where the note is “water”, the water solubility was 224 µg/mL. Moreover, the “specific hydrophobicity log Pow” value in series [1] was 5.6.
